Marks after values point to notes of the source that are not given here.
B1: IFN-β: recombinant human fibroblast interferon with a serine substituted for a cysteine at position 17 (protein, UniProt P01574 22-187, looked up, variant C17S)
Interferon beta: MSYNLLGFLQRSSNFQSQKLLWQLNGRLEYCLKDRMNFDIPEEIKQLQQFQKEDAALTIYEMLQNIFAIFRQDSSSTGWNETIVENLLANVYHQINHLKTVLEEKLEKEDFTRGKLMSSLHLKRYYGRILHYLKAKEYSHCAWTIVRVEILRNFYFINRLTGYLRN

How the values were obtained:
Assay type in all cases: cell-based, human
HLA Class II antigens = experiment: FACS analysis of HLA Class II antigen surface expression in T47D cells; conditions: for HLA Class II level of upregulation versus untreated control cells (equivalent to 1.0): presence or absence of 0.1 μg/ml H-7; for HLA Class II relative increase in expression versus untreated controls (equivalent to 1.0): presence or absence of 1.0 μg/ml H-7
Source text: (§1) IgG1 murine monoclonal antibody Cu18 and Cu46 recognize two different epitopes of a highly restricted breast carcinoma associated glycoprotein of Mr 225,000 to 250,000 (BCA 225). This TAA is expressed intracytoplasmically and on the membrane of 94% of breast tumors tested and in the T47D human breast carcinoma cell line. BCA 225 is shed into the culture medium by T47D cells and into the sera of breast cancer patients. IgG2a monoclonal antibody L243 (anti HLA Class II-DR) recognizes a monomorphic HLA Class II-DR-α epitope (ATCC M355). Monoclonal antibody CL203.4 [40], which recognizes ICAM-I, was kindly provided by Dr. S. Ferrone, New York Medical College, NY. The c-erbB-2 monoclonal antibody which recognizes the extracellular domain of c-erbB-2 was obtained from Triton Biosciences, Inc., Alamedia, Calif. Monoclonal antibodies Cu18 and Cu46 were used at 0.05 μg/ml and monoclonal antibodies interacting with HLA Class II-DR, ICAM-1 and c-erbB-2 were used at 10 μg/ml.
(§2) T47D cells treated with the various compounds were analyzed by flow cytometry using appropriate monoclonal antibody concentrations as described previously. Briefly, 1×10^5 cells were incubated with the test antibody for 30 min at 4° C., washed 3× with PBS and incubated with a goat a mouse F (ab)2 FITC conjugated test antibody at a 1:40 dilution for 30 min at 4° C. Cells were then washed 3× with PBS and analyzed on a FACStar (Beckon Dickinson, Mountain View, Calif.) or a Coulter Epics IV FACS (Coulter, Hialeah, Fla.). Results are expressed as mean fluorescence intensity (MFI) units which were determined as described previously. MFI=(mean channel fluorescence in fluorescence positive antibody-binding cells×% of fluorescence positive antibody-binding cells)−(mean channel fluorescence in unstained cells×% of fluorescence positive cells in the unstained population). All studies were performed a minimum of three or four times with duplicate samples in each experiment.

BCA 225 [1] = experiment: BCA 225 shedding into culture medium, double-determinant ELISA; conditions: T47D cells; for BCA 225 Shedding / BCA 225 Shedding, level of enhancement relative to control (equivalent to 1.0) / BCA 225 Shedding, relative change in comparison with controls (equivalent to 1.0): 72 hr; for ability to induce shedding of BCA 225: Table 2
Experimental: (§3) After appropriate incubation times with the various compounds cell lysates were prepared from T47D cells. Cells were washed 3× in PBS, pH 7.6, pelleted and incubated for 1 hr at room temperature in 20 mM Tris HCl, pH 7.4, with PMSF. Cultures were then homogenized with a Teflon homogenizer, centrifuged at 3000 RPM for 10 min at 4° C. and the supernatant was mixed 1:2 with 20 mM Tris-HCl, pH 7.4, containing 0.5% NP40 (Sigma). After 1 hr at 4° C., the mixture was spun at 3000 RPM for 10 min and the supernatant was passed through an EXTRACTIGEL column (Pierce, Ill.) to remove excess detergent. Protein concentration was determined by the BCA micro-method (Pierce, Ill.). BCA 225 levels in cell extracts and supernatants from control and treated T47D cells were quantitated using a double-determinant ELISA assay. Briefly, Cu18 monoclonal antibody coated Nunc Immunoplates (Nunc, Denmark) were blocked with 1% BSA (Sigma, RIA Reagent Grade) and incubated with a 1:2 dilution of supernatant in duplicate. Standard values for a partially purified BCA 225 preparation were used at a range of 0 to 10 μg/ml in RPMI 1640 plus 10% FBS (T47D growth medium). After 2 hr incubation and three washings with PBS 0.1% Tween 20 a Cu46 monoclonal antibody conjugated to peroxidase was applied to the plate, incubated for 2 hr, washed 6× in PBS 0.1% Tween 20 and the reaction was developed with […] OPD (Sigma, St. Louis) and 4 μl of 30% H2O2 in McIlvans buffer, pH […]. The plates were read on a Dynatech Elisa reader and a linear standard curve was generated and used to calculate the relative amount of BCA 225 in cell lysates and shed into the culture medium. Results were adjusted to ng BCA 225 per mg of protein, or per 1×10^6 cells. Replicate samples varied by ≦10% and replicate experiments varied by ≦20%.

BCA 225 [2] = experiment: FACS analysis of BCA 225 surface expression in T47D cells; conditions: 72 hr; for BCA 225 Expression, level of enhancement relative to control (equivalent to 1.0): presence or absence of 0.1 μg/ml H-7
Source text: as §1, with “μg/ml. For each experiment, isotype matched control backgrounds (IgG for Cu18, Cu46 and ICAM-1, IgG2a for HLA Class Ii and IgG2b for c-erbB-2) were subtracted from the experimental results. Background from antimouse IgG FITC antibody was also subtracted from experimental results. Applicants never observed backgrounds higher than 2% of total cells for isotypic mouse IgG or higher than 5% for antimouse IgG FITC.” for “μg/ml.”
as §2, with “experiment. Replicate samples within individual experiments varied by ≦10% and variation between experiments were generally ≦20%.” for “experiment.”

BCA 225 [3] = experiment: BCA 225 synthesis, double-determinant ELISA of T47D cell lysates; conditions: T47D cells, 72 hr
Experimental: as §3

[4] = 72 hr, 0.1 μg/ml TPA or MEZ, presence or absence of 0.1 μg/ml H-7, FACStar
[5] = 72 hr, 500 units/ml IFN-β or 50 units/ml IFN-γ
[6] = 72 hr, 500 units/ml IFN-β or 50 units/ml IFN-γ, presence or absence of 1.0 μg/ml H-7, Coulter Epics IV FACS
[7] = 0.1 μg/ml TPA, 0.1 μg/ml MEZ or 0.25 μg/ml ADMB, presence or absence of 0.1 μg/ml H-7
[8] = 500 units/ml IFN-β or 50 units/ml IFN-γ, presence or absence of 1.0 μg/ml H-7
[9] = 0.1 μg/ml TPA, 0.1 μg/ml MEZ or 0.25 μg/ml ADMB
[10] = 0.1 μg/ml TPA, 0.1 μg/ml MEZ or 0.25 μg/ml ADMB, presence or absence of 0.1 μg/ml H-7, CU18 antibody

Molecule	HLA Class II level of upregulation versus untreated control cells (equivalent to 1.0) (HLA Class II antigens; 72 hr, 0.1 μg/ml TPA or MEZ)	Antigenic Expression (MFI) HLA Class II (HLA Class II antigens; [4])	HLA Class II relative increase in expression versus untreated controls (equivalent to 1.0) (HLA Class II antigens; [5])	Antigenic Expression (MFI) HLA Class II (HLA Class II antigens; [6])	BCA 225 Shedding (BCA 225 [1]; [7])	BCA 225 Shedding, level of enhancement relative to control (equivalent to 1.0) (BCA 225 [1]; [7])	BCA 225 Shedding (BCA 225 [1]; [8])	BCA 225 Shedding, relative change in comparison with controls (equivalent to 1.0) (BCA 225 [1]; [8])	BCA 225 Expression, level of enhancement relative to control (equivalent to 1.0) (BCA 225 [2]; [9])	BCA 225 Expression (BCA 225 [2]; [10])	BCA 225 Expression (BCA 225 [2]; [8])	BCA 225 Expression, relative change in comparison with controls (equivalent to 1.0) (BCA 225 [2]; [8])	BCA 225 Synthesis (BCA 225 [3]; [7])	BCA 225 Synthesis, level of enhancement relative to control (equivalent to 1.0) (BCA 225 [3]; [7])	BCA 225 Synthesis (BCA 225 [3]; [8])	BCA 225 Synthesis, relative change in comparison with controls (equivalent to 1.0) (BCA 225 [3]; [8])	ability to induce shedding of BCA 225 (BCA 225 [1])	efficacy of upregulation of HLA Class II antigens (fold-change in MFI, FIG. 2) (HLA Class II antigens; 72 hr, 0.1 μg/ml of ADMB, TPA or MEZ)	fold increase in HLA Class II expression (HLA Class II antigens; 500 units/ml IFN-α, IFN-β or IFN-γ as in Table 3)
CC1CNCCN1S(=O)(=O)c1cccc2cnccc12.Cl.Cl (stereo not drawn) [H-7, 1-(5-isoquinolinesulfonyl)-2-methylpiperazine dihydrochloride]	(1.3)^b	4,563 MFI	1.2	3,490 MFI	23 ng/ml/10^6 cells	0.8	38 ng/ml/10^6 cells	0.8	0.8	5,428 MFI	2,560 MFI	0.9	142 ng/mg protein	0.9	230 ng/mg protein	1.0			
C=C(C)[C@@]12O[C@@]3(c4ccccc4)O[C@@H]1[C@@H]1[C@@H]4O[C@]4(CO)[C@@H](O)[C@]4(O)C(=O)C(C)=C[C@H]4[C@@]1(O3)[C@H](C)[C@H]2OC(=O)/C=C/C=C/c1ccccc1 [MEZ, mezerein]	(3.0)	10,260 MFI			147 ng/ml/10^6 cells	5.3			2.5	16,065 MFI			507 ng/mg protein	3.1			enhance shedding of BCA 225		
CCCCCCCCCCCCCC(=O)O[C@@H]1[C@@H](C)[C@@]2(O)[C@@H](C=C(CO)C[C@]3(O)C(=O)C(C)=C[C@@H]23)[C@H]2C(C)(C)[C@]12OC(C)=O [TPA, 12-0-tetradecanoyl-phorbol-13-acetate]	(2.9)	9,984 MFI			84 ng/ml/10^6 cells	3.0			1.8	11,696 MFI			394 ng/mg protein	2.4			enhance shedding of BCA 225		
CCCCCCCCCCN(C)c1cc(CO)cc(NC(C)=O)c1 [ADMB, 3-(N-acetylamino)-5-(N-decyl-N-methylamino)-benzyl alcohol]					26 ng/ml/10^6 cells	0.9			2.0	12,825 MFI			299 ng/mg protein	1.8			did not induce this effect	somewhat more effective than TPA and MEZ	
B1			10.8	31,413 MFI			69 ng/ml/10^6 cells	1.5			5,716 MFI	2.0			374 ng/mg protein	1.7			11 fold

Reference: patent publication US20020040062A1, “Protein kinase C activators and their use in decreasing expression of cell antigens” (The Trustees of Columbia University, priority 1993, published 2002)
